Patent publication US20150374658A1, “COMPOSITION COMPRISING LICORICIDINE” (ANALYTICON DISCOVERY GMBH, priority 2012, published 2015)
In brackets after ≈: the same amount, converted by molar mass.

Columns and labels:
[1] = tested on: Corynebacterium xerosis DSM 20743 (ATCC 373); test: Classic assay, planktonic growth (OD580); assay type: cell-based; settings: read-out: IC50, planktonic growth
Method: (§1) Corynebaterium xerosis is usually characterized as a rod-like gram positive bacterium. Under laboratory conditions (96 well plates) it takes ˜24 hours until Corynebaterium xerosis reaches stationary growth phase. Within this period planktonic growth can be quantified by spectroscopic means and a biofilm can be detected and quantified by standard crystal violet incorporation (c.f. O'Toole & Kolter, 1998, Mol. Microbiol. 28(3), 449-461). Planktonic growth denotes growth of non-adherent cells in the bulk liquid whereas biofilm denotes growth of cells adherent to solid surfaces.
(§2) Routine susceptibility testing of C. xerosis in high throughput format was done by simultaneous addition of test compounds and inoculum (“classic assay”). Growth of untreated (i.e. no extracts or test compounds added, control) planktonic cells ceased 7 hours after inoculation, and decreased by 13% at 24 hours. Biofilm development reached maximum 10 hours upon inoculation and kept constant for the rest of the test period (30 hours).
(§3) Formation of planktonic and biofilm cells was determined 18-24 hours after inoculation, thus at a time when some planktonic cells lysed. […]
(§4) Effects of test compounds were evaluated by comparison of turbidity (optical density, OD580) and crystal violet staining (biofilm; CV580) of treated and untreated samples (control; 100%). […]

[2] = tested on: Corynebacterium xerosis DSM 20743 (ATCC 373); test: Classic assay, biofilm formation (crystal violet, CV580); assay type: cell-based; settings: read-out: IC50, biofilm growth mode
Method: as §1, §2, §3, §4

[3] = Stability assessment of licoricidine using different stabilizers (HPLC peak area, storage at 40° C.); assay type: physicochemical; settings: HPLC UV 225 nm
Method: Five times 5 mg ethanolic extract (0.1%) were dissolved in 1.5 ml ethanol and 3.5 ml buffer pH 7. • To the first batch 20 mg citric acid (0.4%) were added as a stabilizer and the resulting batch was stored at 40° C. • To the second batch 50 mg citric acid (1.0%) were added as a stabilizer and the resulting batch was stored at 40° C. • To the third batch 20 mg ascorbic acid (0.4%) were added as a stabilizer and the resulting batch was stored at 40° C. • To the fourth batch 50 mg ascorbic acid (1.0%) were added as a stabilizer and the resulting batch was stored at 40° C. • The fifth batch was stored as a reference at −18° C.
30 mg lipophilic extract were dissolved in 30 ml safflower oil at 80° C.
The obtained solution was split into three batches: • To the first batch 10 mg/ml ascorbic acid palmitate were added as a stabilizer and the resulting batch was stored at 40° C. • To the second batch 10 mg/ml BHA (Butylhydroxyanisol) were added as a stabilizer and the resulting batch was stored at 40° C. • The third batch was stored as a reference at −18° C.
Dissolve 120 mg lipophilic extract in 30 ml safflower oil at 80° C.
Split in tree (3) batches: • Add to the first batch 10 mg/ml ascorbic acid palmitate as a stabilizer and store at 40° C. • Add to the second batch 10 mg/ml BHA (Butylhydroxyanisol) as a stabilizer and store at 40° C. • Freeze the third batch as a reference at −18° C.
• Add to 10 ml maceration oil 100 mg ascorbic acid palmitate as a stabilizer and store at 40° C. • Add to 10 ml maceration oil 100 mg BHA (Butylhydroxyanisol) as a stabilizer and store at 40° C. • Freeze 10 ml maceration oil as a reference at −18° C.
0.5 ml of the respective oil prepared according to any one of examples 5.1 to 5.4 was extracted with 3 ml methanole/water (9:1), centrifugated and the supernatant was used for the analysis.
• Column: Kromasil C18, 125×4 mm with pre-column • Detection: UV (225 nm) • Mobile Phase: A: water with 5 mM ammoniumformiate and 0.1% formic acid; • B: acetonitrile/methanol=1:1, 5 mM ammoniumformiate and 0.1% formic acid • Gradient: from 60% B to 80% B in 30 min • Flow: 0.8 ml/min • The retention time of the reference peak (licoricidine) is 16.9 (±0.2) min.

SMILES | IC50 [1] [µg/mL] | IC50 [2] [µg/mL] | IC50 ([2]; serial dilutions, classic assay) [µg/mL] | decrease of the peak area of licoricidine ([3]; aqueous solution (buffer pH 7 in addition of 30% ethanol) with 0.1% ethanolic extract and 1% citric acid, eight (8) weeks storage at 40° C.) | decrease of the peak area of licoricidine ([3]; maceration oil with addition of 1% BHA, twelve (12) weeks storage at 40° C.) | decrease of the peak area of licoricidine ([3]; safflower oil with 0.1% lipophilic extract, 1% BHA, twelve (12) weeks storage at 40° C.) | decrease of the peak area of licoricidine ([3]; safflower oil with 0.4% lipophilic extract, 1% BHA, twelve (12) weeks storage at 40° C.)
Oc1cc(Cl)ccc1Oc1ccc(Cl)cc1Cl [Triclosan, 5-chloro-2-(2,4-dichlorophenoxy)-phenol, reference compound] | 1.7 (≈ 5.87 µM) | 0.6 (≈ 2.07 µM) | – | – | – | – | –
COc1c(CC=C(C)C)c(O)cc2c1C[C@H](c1ccc(O)c(CC=C(C)C)c1O)CO2 [licoricidine] | – | – | 4.3 (≈ 10.1 µM) | lower than 20% | lower than 20% | lower than 20% | lower than 20%
